Columns and labels:
[1] = system: human lung adenocarcinoma cell A-549; assay: Growth inhibition of A-549 cells, SRB protein staining assay; type: cell-based; settings: read-out: Growth inhibition effect to A-549 cell strain; for inhibition at 100 µM: A549, 10^−4 M; for inhibition at 10 µM: A549, 10^−5 M; for inhibition at 1 µM: A549, 10^−6 M; for inhibition at 0.1 µM: A549, 10^−7 M; for inhibition at 0.01 µM: A549, 10^−8 M
Description: (§1) The cell growth inhibition of mice leukemia cell P388 was evaluated by MTT (microculture tetrozolium) assay, while the cell growth inhibition of human lung adenocarcinoma cell A-549 was evaluated by SRB (Sulforhodamine B) protein staining assay.
The procedure of SRB assay was as follows: appropriate amount of cells in log phase were seeded in 96-well plates according to the growing rate (90 ul/well). After cultured for 24 h, cells were exposed to serial dilutions of drugs in triplicate (10 ul/well). In addition, control wells of normal saline in corresponding concentrations and zeroing wells without cell were set. The cells were incubated in 5% CO2 humidified incubator at 37° C. After 72 h, the medium was removed and cells were fixed with cold 10% trichloric acid (TCA) at 4° C. for 1 h. The plates were washed with distilled water 5 times, and stained in room temperature with 4 mg/ml SRB (Sigma, diluted with 1% glacial acetic acid, 100 ul/well) for 15 minutes after air drying. SRB was then washed with 1% acetic acid 5 times. Plates were dried, followed by adding 150 ul/well Tris solution. Absorbance was measured at […] using a multiwell spectrophotometer. The inhibition effect of the compounds in test (percentage of growth inhibition) was calculated for each well: % inhibition=(A540control cells−A540treated cells)/A540control cells×100%.
(§2) The cell lines used were mice leukemia cell P388, human leukemia cell MOLT-4, human lung adenocarcinoma cell A-549, human gastric adenocarcinoma SGC-7901, human hepatocellular carcinoma BEL-7402 and human embryonal fibroblast WI-38 (commerially available from ATCC).
(§3) The exposure time to compounds was 48 h-72 h.

mice leukemia cell P388 = assay: Growth inhibition of P388 cells, MTT assay; type: cell-based; settings: Mus musculus, read-out: Growth inhibition effect to P388 cell strain; for inhibition at 100 µM: 10^−4 M; for inhibition at 10 µM: 10^−5 M; for inhibition at 1 µM: 10^−6 M; for inhibition at 0.1 µM: 10^−7 M; for inhibition at 0.01 µM: 10^−8 M
Description: as §1
The procedure of MTT assay was as follows: appropriate amount of cells in log phase were seeded in 96-well plates (6000 cells/well, 15000 cells/well, 90ul/well) according to the growing rate. After cultured for 24 h, cells were exposed to serial dilutions of drugs in triplicate (10 ul/well). In addition, wells without cell, and wells without cell but with serial dilutions of drugs in case of using a colored-drug were set for zeroing. Then, the cells were cultured in 5% CO2 humidified incubator at 37° C. for 48 h. After treatment of drugs for 48 h, 20ul MTT (Sigma) which was diluted by normal saline to the concentration of 5 mg/ml was added to each well, 50ul/well 10%SDS-5% isobutanol-0.01% mol/LHCl was added after 4 h. After cultured overnight, absorbance was measured at 570 nm using a multiwell spectrophotometer. The inhibition effect of the compounds in test (percentage of growth inhibition) was calculated for each well: % inhibition=(OD570control cells−OD570treated cells)/OD570control cells×100%.
as §2, §3

SMILES | melting point | inhibition at 100 µM [1] | inhibition at 10 µM [1] | inhibition at 1 µM [1] | inhibition at 0.1 µM [1] | inhibition at 0.01 µM [1] | inhibition at 100 µM (mice leukemia cell P388) | inhibition at 10 µM (mice leukemia cell P388) | inhibition at 1 µM (mice leukemia cell P388) | inhibition at 0.1 µM (mice leukemia cell P388) | inhibition at 0.01 µM (mice leukemia cell P388)
CN(C)CCN1C(=O)c2cccc3c2c(cc2nc(-c4ccccc4)sc23)C1=O [compound 5, N-(N′,N′-dimethylaminoethyl)-4H, 6H-9-phenyl-benzo[de]thiazol[5,4-g]isoquinoline-4,6-diketone] | 220 to 221 °C | 94.8% | 91.5% | 73% | 69.7% | 17.8% | 96.6% | 87.7% | 48.2% | 21.1% | 8.1%
C=C(C)C(CN1C(=O)c2cccc3c2c(cc2c4ccccc4sc32)C1=O)OO (stereo not shown) [compound 19] | 174 to 175 °C |  |  |  |  |  |  |  |  |  | 
CN(C)CCCN1C(=O)c2cccc3c2c(cc2nnsc23)C1=O [compound 13, 5-(N′,N′-dimethylaminopropyl)-4H, 6H-benzo[de]-1,2,3,-thiadiazol[5,4-g]isoquinoline-4,6-diketone] | 101 to 102 °C | 95.9% | 94.4% | 90.6% | 0% | 0% | 99.5% | 89.2% | 19.8% | 11% | 14.5%
O=C1c2cccc3c2c(cc2nnsc23)C(=O)N1CCN1CCNCC1 [compound 14, 5-(2′-piperazinylethyl)-4H, 6H-benzo[de]-1,2,3,-thiadiazol[5,4-g]isoquinoline-4,6-diketone] | 145 to 146 °C | 95.9% | 96.1% | 87.3% | 60.2% | 4.4% | 98.8% | 90.8% | 16.8% | 13.7% | 18.4%
O=C1c2cccc3c2c(cc2c4ccccc4sc32)C(=O)N1CCN1CCNCC1 [compound 17, N-(2′-piperazinylethyl)benzo[b]thieno[2,1-c] naphthalimide] | 226 to 228 °C | 91.1% | 95.4% | 46.8% | 0% | 1.7% | 100% | 100% | 23.9% | 4.5% | 2%
CN(C)CCCN1C(=O)c2cccc3c2c(cc2c4ccccc4sc32)C1=O [compound 18, N-(N′,N′-dimethylaminopropyl)benzo[b]thieno[2,1-c] naphthalimide] | 168 to 170 °C | 95.3% | 96.9% | 81.1% | 47.2% | 1.7% | 100% | 100% | 29.8% | 17.1% | 5.5%
Cc1ccc(-c2nc3cc4c5c(cccc5c3s2)C(=O)N(CCN(C)C)C4=O)cc1 [compound 6, N-(N′,N′-dimethylaminoethyl)-4H, 6H-9-p-methylphenyl-benzo[d, e]thiazol[5,4-g]isoquinoline4,6-diketone] | 202 to 203 °C | 95.8% | 92.3% | 52.7% | 31.5% | 7.1% | 96% | 74.7% | 47.7% | 29.3% | 13%
CCCCN1C(=O)c2cccc3c2c(cc2c4ccccc4sc32)C1=O [compound 15, N-butylbenzo[b] thieno[2,1-c]naphthalimide] | 170 to 172 °C | 94% | 45.6% | 0% | 0% | 0% | 51.8% | 26% | 3.2% | 3.2% | 5.8%
CN(C)CCN1C(=O)c2cccc3c2c(cc2nc(-c4ccccc4Cl)sc23)C1=O [compound 10, N-(N′,N′-dimethylaminoethyl)-4H, 6H-9-o-chlorophenyl-benzo[de]thiazol[5,4-g]isoquinoline-4,6-diketone] | 235 to 237 °C | 91.4% | 93.4% | 94.5% | 35.7% | 12.5% | 96.1% | 89% | 64.6% | 40.5% | 7.3%
CN(C)CCN1C(=O)c2cccc3c2c(cc2nc(-c4ccccc4O)sc23)C1=O [compound 8, N-(N′,N′-dimethylaminoethyl)-4H, 6H-9-o-hydroxyphenyl-benzo[de]thiazol[5,4-g]isoquinoline-4,6-diketone] | 240 to 241 °C | 95.2% | 59.6% | 18.6% | 1% | 0.2% | 94.8% | 45.9% | 24.9% | 10% | 8.8%
O=c1c2ccc3sc4ccccc4c4ccc(c(=O)n1CCN1CCNCC1)c2c34 [compound 3, N-(2′-piperazinylethyl)benzo[k, l]thioxanthene-3,4-dicarboximide] | 286 to 287 °C | 78.6% | 92.4% | 69.8% | 4.7% | 0% | 100% | 100% | 22.2% | 0% | 0%
C=C(C)C(O)CN1C(=O)c2cccc3c2c(cc2c4ccccc4sc32)C1=O (stereo not shown) [compound 20] | 95 to 97 °C |  |  |  |  |  |  |  |  |  | 

Second part, led by results:

melting point | SMILES | inhibition at 100 µM [1] | inhibition at 10 µM [1] | inhibition at 1 µM [1] | inhibition at 0.1 µM [1] | inhibition at 0.01 µM [1] | inhibition at 100 µM (mice leukemia cell P388) | inhibition at 10 µM (mice leukemia cell P388) | inhibition at 1 µM (mice leukemia cell P388) | inhibition at 0.1 µM (mice leukemia cell P388) | inhibition at 0.01 µM (mice leukemia cell P388)
202 to 203 °C | CC(C)=CCCn1c(=O)c2ccc3sc4ccccc4c4ccc(c1=O)c2c34 [compound 23] |  |  |  |  |  |  |  |  |  | 
221 to 223 °C | COc1ccc(C(=O)ON2C(=O)c3cccc4cccc(c34)C2=S)cc1OC [compound 32] |  |  |  |  |  |  |  |  |  | 
189 to 190 °C | O=C(ON1C(=O)c2cccc3cccc(c23)C1=S)c1ccccc1 [compound 24] |  |  |  |  |  |  |  |  |  | 
216 to 218 °C | Cc1cc(C)cc(C(=O)ON2C(=O)c3cccc4cccc(c34)C2=S)c1 [compound 31] |  |  |  |  |  |  |  |  |  | 
210 to 211 °C | C=C(C)C(CCn1c(=O)c2ccc3sc4ccccc4c4ccc(c1=O)c2c34)OO (stereo not shown) [compound 22] |  |  |  |  |  |  |  |  |  | 
208 to 210 °C | O=C(ON1C(=O)c2cccc3cccc(c23)C1=S)c1ccc(Cl)cc1F [compound 30] |  |  |  |  |  |  |  |  |  | 
209 to 211 °C | O=C(ON1C(=O)c2cccc3cccc(c23)C1=S)c1ccco1 [compound 34] |  |  |  |  |  |  |  |  |  | 
207 to 208 °C | CC(C)=CCN1C(=O)c2cccc3c2c(cc2c4ccccc4sc32)C1=O [compound 21] |  |  |  |  |  |  |  |  |  | 
182 to 183 °C | O=C(ON1C(=O)c2cccc3cccc(c23)C1=S)c1ccc(Cl)cc1 [compound 26] |  |  |  |  |  |  |  |  |  | 
